Data as given in PubChem BioAssay AID1259407 (Chemical Carcinogenesis Research Information System (CCRIS), 2018).
The source made the active and inactive calls. No rule for the calls is given here.

Test system: CCRIS mutagenicity, Ames/micronucleus/aberration tests
Assay: CCRIS mutagenicity studies
[1] = Test System: AMES SALMONELLA TYPHIMURIUM, Strain/Indicator: TA98, Metabolic Activation: NONE, Method: STANDARD PLATE
[2] = Test System: AMES SALMONELLA TYPHIMURIUM, Strain/Indicator: TA100, Metabolic Activation: NONE, Method: STANDARD PLATE

CC1CCC(C(C)C)C(OC(=O)c2ccccc2N)C1 (configuration not stated)
mutagenic call (Test System: AMES SALMONELLA TYPHIMURIUM, Strain/Indicator: TA98, Metabolic Activation: HAMSTER, LIVER, S-9, AROCLOR 1254 (10%), Method: STANDARD PLATE): inactive; negative | mutagenic call [1]: inactive; negative | mutagenic call (Test System: AMES SALMONELLA TYPHIMURIUM, Strain/Indicator: TA98, Metabolic Activation: RAT, LIVER, S-9, AROCLOR 1254 (10%), Method: STANDARD PLATE): inactive; negative | mutagenic call (Test System: AMES SALMONELLA TYPHIMURIUM, Strain/Indicator: TA100, Metabolic Activation: HAMSTER, LIVER, S-9, AROCLOR 1254 (10%), Method: STANDARD PLATE): inactive; negative | mutagenic call [2]: inactive; negative | mutagenic call (Test System: AMES SALMONELLA TYPHIMURIUM, Strain/Indicator: TA100, Metabolic Activation: RAT, LIVER, S-9, AROCLOR 1254 (10%), Method: STANDARD PLATE): inactive; negative | mutagenic call (Test System: AMES SALMONELLA TYPHIMURIUM, Strain/Indicator: TA1535, Metabolic Activation: HAMSTER, LIVER, S-9, AROCLOR 1254 (10%), Method: STANDARD PLATE): inactive; negative | mutagenic call (Test System: AMES SALMONELLA TYPHIMURIUM, Strain/Indicator: TA1535, Metabolic Activation: NONE, Method: STANDARD PLATE): inactive; negative | mutagenic call (Test System: AMES SALMONELLA TYPHIMURIUM, Strain/Indicator: TA1535, Metabolic Activation: RAT, LIVER, S-9, AROCLOR 1254 (10%), Method: STANDARD PLATE): inactive; negative | mutagenic call (Test System: AMES SALMONELLA TYPHIMURIUM, Strain/Indicator: TA1537, Metabolic Activation: HAMSTER, LIVER, S-9, AROCLOR 1254 (10%), Method: STANDARD PLATE): inactive; negative | mutagenic call (Test System: AMES SALMONELLA TYPHIMURIUM, Strain/Indicator: TA1537, Metabolic Activation: NONE, Method: STANDARD PLATE): inactive; negative | mutagenic call (Test System: AMES SALMONELLA TYPHIMURIUM, Strain/Indicator: TA1537, Metabolic Activation: RAT, LIVER, S-9, AROCLOR 1254 (10%), Method: STANDARD PLATE): inactive; negative | mutagenic call (Test System: AMES SALMONELLA TYPHIMURIUM, Strain/Indicator: TA1538, Metabolic Activation: HAMSTER, LIVER, S-9, AROCLOR 1254 (10%), Method: STANDARD PLATE): inactive; negative | mutagenic call (Test System: AMES SALMONELLA TYPHIMURIUM, Strain/Indicator: TA1538, Metabolic Activation: NONE, Method: STANDARD PLATE): inactive; negative | mutagenic call (Test System: AMES SALMONELLA TYPHIMURIUM, Strain/Indicator: TA1538, Metabolic Activation: RAT, LIVER, S-9, AROCLOR 1254 (10%), Method: STANDARD PLATE): inactive; negative | mutagenic call (Test System: MOUSE LYMPHOMA, Strain/Indicator: L5178Y (TK+/TK-), Metabolic Activation: NONE, Method: SUSPENSION/PLATE): inactive; negative. reevaluation of results: negative | mutagenic call (Test System: MOUSE LYMPHOMA, Strain/Indicator: L5178Y (TK+/TK-), Metabolic Activation: RAT, LIVER, S-9, AROCLOR 1254, Method: SUSPENSION/PLATE): inactive; negative. reevaluation of results: equivocal

CC(C)COS(C)(=O)=O
mutagenic call (End Point: IN VITRO MICRONUCLEUS, Test System: MOUSE LYMPHOMA L5178Y CELLS, Metabolic Activation: NONE): inactive; negative; significant increase at highly/excessively cytotoxic doses | mutagenic call (End Point: IN VITRO MICRONUCLEUS, Test System: MOUSE LYMPHOMA L5178Y CELLS, Metabolic Activation: RAT, LIVER, S-9): inactive; negative | mutagenic call [2]: active; positive | mutagenic call (Test System: AMES SALMONELLA TYPHIMURIUM, Strain/Indicator: TA100, Metabolic Activation: RAT, LIVER, S-9, Method: STANDARD PLATE): active; positive

CCCSP(=O)(OCC)Oc1ccc(Br)cc1Cl (configuration not stated)
mutagenic call (End Point: In vitro chromosomal aberrations, Test System: Human peripheral lymphocytes, Metabolic Activation: None): active; positive (structural changes) | mutagenic call (End Point: In vivo chromosomal aberrations, Test System: Bone marrow cells, Species: Mouse, Strain/Sex: Swiss/Male, Route: Oral): active; positive (structural changes and ploidy)

COc1cccc(C=O)c1O
mutagenic call [1]: inactive; negative | mutagenic call [2]: inactive; negative | mutagenic call (Test System: E. COLI, Strain/Indicator: CM561 LEXA, Metabolic Activation: NONE, Method: STANDARD PLATE): inactive; negative | mutagenic call (Test System: E. COLI, Strain/Indicator: CM611 UVRA/LEXA, Metabolic Activation: NONE, Method: STANDARD PLATE): inactive; negative | mutagenic call (Test System: E. COLI, Strain/Indicator: WP2 UVRA, Metabolic Activation: NONE, Method: STANDARD PLATE): inactive; negative

COc1ccc(N=O)cc1
mutagenic call [1]: active; positive | mutagenic call (Test System: AMES SALMONELLA TYPHIMURIUM, Strain/Indicator: TA98, Metabolic Activation: RAT, LIVER, S-9, AROCLOR 1254, Method: STANDARD PLATE): active; positive | mutagenic call [2]: active; positive | mutagenic call (Test System: AMES SALMONELLA TYPHIMURIUM, Strain/Indicator: TA100, Metabolic Activation: RAT, LIVER, S-9, AROCLOR 1254, Method: STANDARD PLATE): active; positive
